In patent publication US20150313241A1, “Pesticidal Mixtures” (BASF Corporation, priority 2012, published 2015):

Tested on: wheat
Assay: Improvement of plant height in wheat (greenhouse pot trial, Use Example H-2)
Assay type: in vivo
Details: wheat cv. J B Asano, 14 days at 20° C., % compared to untreated control (100 = 13.9 cm), pyraclostrobin 5 g ai/100 kg seeds as seed treatment, B. simplex broth 10 ml per seed as drench
Description: Pyraclostrobin was applied as commercial seed treatment formulation STAMINA (200 g/L a.i., BASF SE, Ludwigshafen, Germany).
In pot trials in Limburgerhof greenhouses, Bacillus simplex ABU 288 was tested in wheat and maize as solo products and in combination with pyraclostrobin to show effects on plant height. The application of the pyraclostrobin was done as seed treatment and the seeds were treated in the BASF Seed Solutions Technology Center (SSTC) Limburgerhof using a batch lab treater. The respective amounts of seeds was placed in the bowl of the treater and the slurry was dosed on the spinning disk.
The bacterials were grown in shake flasks and used as fermentation broth with a CFU of at least 1×10^12 per ml. This broth was added as a drench solution directly adjacent to the seeds with 10 ml for each seed kernel which makes 50 ml per pot.
The trial was sown in 8 cm pots and a mix of peat substrate and sand (ratio 1:4) was used as a substrate. […]
For the assessment, the plant height from all plants was measured in cm. […]
The expected relative plant height of active compound combinations were determined using Colby's formula (Colby, S. R. “Calculating synergistic and antagonistic responses of herbicide combinations”, Weeds 15, pp. 20-22, 1967) and compared with the observed efficacies. […]

pyraclostrobin
Observed relative plant height: 99.4%
